From patent US20090042726A1, “Novel Herbicides” (SYNGENTA LIMITED, priority 2005, published 2009)

Test system: Monocotyledonous and dicotyledonous test plants
Test: Herbicidal action, application pre-emergence (Example B1)
Assay type: in vivo
Set-up: key: 10=total damage to plant; 0=no damage to plant
Details: 1000 g/ha, evaluated after 9 or 13 days; for AGSTE herbicidal action (damage score 0-10): Agrostis-tenius; for AMARE herbicidal action (damage score 0-10): Amaranthus retroflexus; for DIGSA herbicidal action (damage score 0-10): Digitaria sanguinalis; for POATR herbicidal action (damage score 0-10): Poa trivialis; for SETIT herbicidal action (damage score 0-10): Setaria italica
Summary of the method: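 Seeds sown in sterilised standard soil were sprayed one day after sowing (pre-emergence) with 1000 mg/l active ingredient in aqueous solution containing 10% DMSO. Plants were kept in a climatic chamber at 24/19° C. day/night after application. Damage was scored 0 (none) to 10 (total) after 9 or 13 days.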

SMILES: Cn1nc(C(F)(F)F)c(C[S+]([O-])C2=NOC(C)(C)C2(Cl)Cl)c1OCC(F)(F)F (stereo not shown) [2.20]
- AGSTE herbicidal action (damage score 0-10): 5
- AMARE herbicidal action (damage score 0-10): 4
- DIGSA herbicidal action (damage score 0-10): 9
- POATR herbicidal action (damage score 0-10): 8
- SETIT herbicidal action (damage score 0-10): 7

SMILES: Cn1cc(C(F)(F)F)c(C[S+]([O-])C2=NOC(C)(C)C2F)n1 (mixture of isomers) [4.02]
- AGSTE herbicidal action (damage score 0-10): 10
- AMARE herbicidal action (damage score 0-10): 9
- DIGSA herbicidal action (damage score 0-10): 9
- POATR herbicidal action (damage score 0-10): 10
- SETIT herbicidal action (damage score 0-10): 9

SMILES: C#CCn1cc(CS(=O)(=O)C2=NOC(C)(C)C2F)c(C(F)(F)F)n1 (stereo not shown) [2.50]
- AGSTE herbicidal action (damage score 0-10): 10
- AMARE herbicidal action (damage score 0-10): 10
- DIGSA herbicidal action (damage score 0-10): 10
- POATR herbicidal action (damage score 0-10): 10

SMILES: CCn1ncc(CSC2=NOC(C)(C)C2F)n1 (stereo not shown) [Compound No. 7.34]
- AGSTE herbicidal action (damage score 0-10): 9
- AMARE herbicidal action (damage score 0-10): 6
- DIGSA herbicidal action (damage score 0-10): 8
- POATR herbicidal action (damage score 0-10): 8

SMILES: Cn1ncc(C[S+]([O-])C2=NOC(C)(C)C2F)n1 (mixture of isomers) [7.22]
- AGSTE herbicidal action (damage score 0-10): 9
- AMARE herbicidal action (damage score 0-10): 0
- DIGSA herbicidal action (damage score 0-10): 8
- POATR herbicidal action (damage score 0-10): 9

SMILES: Cc1nn(C)c(OCC(F)(F)F)c1CS(=O)(=O)C1=NOC(C)(C)C1F (stereo not shown) [2.63]
- AGSTE herbicidal action (damage score 0-10): 10
- AMARE herbicidal action (damage score 0-10): 10
- DIGSA herbicidal action (damage score 0-10): 8
- POATR herbicidal action (damage score 0-10): 10

SMILES: Cn1nc(OC(F)F)c(C[S+]([O-])C2=NOC(C)(C)C2F)c1C(F)(F)F (single isomer, unassigned) [2.30]
- AGSTE herbicidal action (damage score 0-10): 10
- AMARE herbicidal action (damage score 0-10): 9
- DIGSA herbicidal action (damage score 0-10): 10
- POATR herbicidal action (damage score 0-10): 9
- SETIT herbicidal action (damage score 0-10): 9

SMILES: Cc1nn(C)nc1C[S+]([O-])C1=NOC(C)(C)C1F (single isomer, unassigned) [7.03]
- AGSTE herbicidal action (damage score 0-10): 8
- AMARE herbicidal action (damage score 0-10): 6
- DIGSA herbicidal action (damage score 0-10): 10
- POATR herbicidal action (damage score 0-10): 10
- SETIT herbicidal action (damage score 0-10): 9

SMILES: CC(c1c(C(F)(F)F)nn(C)c1OCC(F)(F)F)S(=O)(=O)C1=NOC(C)(C)C1F (mixture of isomers) [Compound No. 2.12]
- AGSTE herbicidal action (damage score 0-10): 10
- AMARE herbicidal action (damage score 0-10): 6
- DIGSA herbicidal action (damage score 0-10): 9
- POATR herbicidal action (damage score 0-10): 10
- SETIT herbicidal action (damage score 0-10): 9

SMILES: Cn1nnc(Br)c1C[S+]([O-])C1=NOC(C)(C)C1F (mixture of isomers) [11.02]
- AGSTE herbicidal action (damage score 0-10): 10
- AMARE herbicidal action (damage score 0-10): 5
- DIGSA herbicidal action (damage score 0-10): 9
- POATR herbicidal action (damage score 0-10): 10

SMILES: Cc1nn(C(C)C)nc1CS(=O)(=O)C1=NOC(C)(C)C1F (stereo not shown) [7.39]
- AGSTE herbicidal action (damage score 0-10): 10
- AMARE herbicidal action (damage score 0-10): 8
- DIGSA herbicidal action (damage score 0-10): 9
- POATR herbicidal action (damage score 0-10): 8

SMILES: COCCn1nc(C[S+]([O-])C2=NOC(C)(C)C2F)c(C(F)(F)F)n1 (mixture of isomers) [7.19]
- AGSTE herbicidal action (damage score 0-10): 6
- AMARE herbicidal action (damage score 0-10): 10
- DIGSA herbicidal action (damage score 0-10): 9
- POATR herbicidal action (damage score 0-10): 10

SMILES: CC(C)n1nc(C[S+]([O-])C2=NOC(C)(C)C2F)c(C(F)(F)F)n1 (single isomer, unassigned) [7.26]
- AGSTE herbicidal action (damage score 0-10): 9
- AMARE herbicidal action (damage score 0-10): 0
- DIGSA herbicidal action (damage score 0-10): 5
- POATR herbicidal action (damage score 0-10): 6

SMILES: CCn1cc(C[S+]([O-])C2=NOC(C)(C)C2F)c(C(F)(F)F)n1 (mixture of isomers) [2.46]
- AGSTE herbicidal action (damage score 0-10): 10
- AMARE herbicidal action (damage score 0-10): 10
- DIGSA herbicidal action (damage score 0-10): 9
- POATR herbicidal action (damage score 0-10): 10

SMILES: CC1(C)ON=C(S(=O)(=O)C(F)(F)c2ccccc2OC(F)(F)F)C1F (stereo not shown) [Compound No. 1.12]
- AGSTE herbicidal action (damage score 0-10): 10
- AMARE herbicidal action (damage score 0-10): 9
- DIGSA herbicidal action (damage score 0-10): 9
- POATR herbicidal action (damage score 0-10): 0
- SETIT herbicidal action (damage score 0-10): 8

SMILES: Cc1nn(C)c(OCC(F)(F)F)c1C[S+]([O-])C1=NOC(C)(C)C1F (single isomer, unassigned) [2.61]
- AGSTE herbicidal action (damage score 0-10): 10
- AMARE herbicidal action (damage score 0-10): 6
- DIGSA herbicidal action (damage score 0-10): 9
- POATR herbicidal action (damage score 0-10): 4
